Measured values: patent publication US20120264810A1, “COMPOSITIONS AND METHODS FOR ENHANCING CELLULAR UPTAKE AND INTRACELLULAR DELIVERY OF LIPID PARTICLES” (The University of British Columbia, priority 2009, published 2012)

What was measured:
[1] = tested on: GAPDH protein expression in LNCaP cells; test: GAPDH siRNA-LN knockdown in LNCaP cells; assay type: cell-based, human; details: data not shown
Description: FIG. 5: Raw264.7 cells were treated for 24 hours with siRNACy3 encapsulated in DLinDMA LNs in the presence or absence of 5% CQ-lipid. A lipid label, SPDiO, was incorporated into the LN to monitor uptake. LN uptake was assessed by (A) SPDiO fluorescence and distribution of siRNA was assessed by (B) Cy3 fluorescence using the Cellomics ArrayScan VTI. (C) Raw264.7 cells were incubated with the same LN formulations as in (B) for 24 hours at 10 μg/mL siRNACy3. siRNACy3 distribution was examined by confocal microscopy. (D) GAPDH siRNA was formulated into LN particles comprising of 40% DLinDMA with 0% CQ-lipid or 40% DLinDMA with 5% CQ-lipid. Raw264.7 cells were treated with 5, 10 and 20 μg/mL of siRNA for 48 and 72 hours. GAPDH protein expression was assessed by western blotting against anti-GAPDH and anti-actin. (E) LNCaP cells were treated accordingly as in (D).
Perhaps most importantly, we wanted to determine whether the enhanced cytosolic distribution of siRNACy3 observed with the CQ-lipid correlated to enhanced gene knockdown. Glyceraldehyde 3-phosphate dehydrogenase (GAPDH) is an ubiquitously expressed cytosolic protein and therefore knockdown efficiency of encapsulated siRNA can be tested in different cell lines (Barber et al., 2005). Raw264.7 cells were treated with LN of varying concentration of GAPDH siRNA for 24, 48 and 72 hours. Total protein was isolated and analyzed for GAPDH levels by immunoblotting. […] The function of GAPDH siRNA was specific since actin expression was unaltered (FIG. 5D). To confirm the function of the CQ-lipid in the LN-siRNA-mediated gene knockdown, GAPDH silencing was also assessed in LNCaP cells (FIG. 5E).

HeLa cells = test: LNP uptake in HeLa cells (SPDiO fluorescence, Cellomics / confocal); assay type: cell-based, human; details: 30 nM ouabain, 24 hrs, confocal quantification
Description: All cell lines were seeded at 5000 to 20,000 cells/well of 96-well ViewPlate (PerkinElmer, Shelton, Conn., USA) in 100 μl of medium and were allowed to grow overnight. Fresh medium containing 5 or 10 μg/ml of siRNA encapsulated in LNP was added the next day. Small molecules were either added manually or pinned from 1000-fold stocks in DMSO using a pinning robot equipped with 0.4 mm pins (BioRobotics, Cambridge, UK). Cells were incubated for 24 h. Cells were then washed once in PBSCM (1×PBS containing […] CaCl2), fixed in 3% paraformaldehyde containing Hoescht's stain for 15 min, washed once in PBSCM and stored in 100 μl of PBSCM.
Plates were imaged using a Cellomics Arrayscan VTI HCS Reader (Thermo Scientific, Pittsburgh, Pa., USA). Images were acquired using a 20× PlanFluor objective and a XF93 filter set. Object identification and image analysis were performed using the Cellomics Compartmental Analysis algorithm. Cellular SPDiO and siRNA-Cy3 fluorescence intensities were measured for a minimum of 400 cells and the average pixel intensity was examined. For confocal microscopy, cells grown on glass coverslips were washed once in 1×PBS, fixed in 3% paraformaldehyde containing Hoechst's stain for 15 min, washed again and mounted on slides. Images were captured on an Olympus FV1000 (Olympus, Center Valley, Pa., USA) laser scanning microscope and cellular SPDiO fluorescence intensity was analyzed using ImageJ (NIH, http://rsb.info.nih.gov/ij/).

[2] = tested on: GAPDH expression in HeLa cells; test: siGAPDH-LNP knockdown by immunoblotting in HeLa cells; assay type: cell-based, human
Description: HeLa cells were plated in twelve-well plates for indicated times. They were then washed in PBS and extracted in RIPA buffer (1% NP-40 and 0.5% Deoxycholic in 1×PBS) supplemented with protease inhibitor tablets (Roche Diagnostics). Total protein quantified by the Bradford Assay was analyzed by immunoblotting using antibodies to GAPDH, β-actin (Abcam, Cambridge, Mass.) or ATP1A1 ((Millipore, Billerica, Mass.). Antigen-antibody complexes in immunoblots were detected using Millipore Immobilon Western Chemiluminescent HRP Substrate (Millipore, Billerica, Mass.).
Knockdown effect of our LNP systems in the presence or absence of ouabain was also examined (FIG. 9B). GAPDH was chosen as a target gene since it is ubiquitously expressed at high levels in all cell types. siGAPDH or negative control siScramble was encapsulated in our LNP systems and incubated with cells for 24 hrs in the presence or absence of ouabain. Cells were further incubated in plain medium for 48 hrs before protein expression was analyzed. We observed that cells incubated continuously with ouabain for longer than 24 hrs were unhealthy (data not shown). […] It is noteworthy that LNP encapsulating siGAPDH or siScramble contained 1 mol % of PEG-s-DMG. […]

[3] = target: human α1-isoform of Na+/K+-ATPase (Homo sapiens, UniProt P05023); details: cited from earlier work
[4] = target: rodent α1-isoform of Na+/K+-ATPase (Rattus norvegicus, UniProt P06685); details: cited from earlier work

In the case of `C[C@@H]1O[C@@H](O[C@H]2C[C@@H](O)[C@]3(CO)[C@H]4[C@H](O)C[C@]5(C)[C@@H](C6=CC(=O)OC6)CC[C@]5(O)[C@@H]4CC[C@]3(O)C2)[C@H](O)[C@H](O)[C@H]1O` [ouabain], the “GAPDH knockdown with ouabain” value [1] is reported as “enhanced GAPDH knockdown”, the “cellular SPDiO fluorescence (LNP content) relative to untreated cells” value (HeLa cells) is reported as 2.5 times and the “cell health on continuous incubation” value ([2]; incubated continuously with ouabain for longer than 24 hrs (data not shown)) is reported as “unhealthy”. The “Expression of GAPDH” value ([2]; siGAPDH-LNP 10 ug/ml with 30 nM ouabain 24 h, then 48 hrs fresh medium) was “substantially reduced”, the sensitivity to ouabain [3] was “highly sensitive” and the “sensitivity to ouabain, less than human α1-isoform” value [4] was 1000 fold.
